Measurements published in the supplement of paper PMC5844555.

How the values were obtained:
Test in all cases: 3' UTR reporter interaction score (median-centred robust z-score of log2 firefly/Renilla activity); higher = less repression of the 3' UTR reporter
Conditions in all cases: HEK293T; 48 h
BRCA2 = test system: BRCA2
In short: (§1)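 In at least two independent screens, HEK293T cells in 96-well plates (10,000/well) were co-transfected with DharmaFECT Duo using 100 ng firefly luc2P reporter with the gene's 3' UTR, 20 ng Renilla pRL-TK control and 2.5 pmol miRNA mimic, and dual-luciferase activities were read at 48 h. The interaction score, averaged across screens, is the per-plate robust z-score (median, median absolute deviation) of the log firefly/Renilla ratio, median-centred per miRNA, with more negative indicating interaction.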

EZH2 = test system: EZH2
In short: as §1

FBXW7 = test system: FBXW7
In short: as §1

HRAS = test system: HRAS
In short: as §1

MYB = test system: MYB
In short: as §1

MYCN = test system: MYCN
In short: as §1

MYC = test system: MYC
In short: as §1

MYT1L = test system: MYT1L
In short: as §1

NOTCH1 = test system: NOTCH1
In short: as §1

PHF6 = test system: PHF6
In short: as §1

PHOX2B = test system: PHOX2B
In short: as §1

RB1 = test system: RB1
In short: as §1

TP53 = test system: TP53
In short: as §1

ZEB2 = test system: ZEB2
In short: as §1

Sequence	3' UTR reporter interaction score (BRCA2)	3' UTR reporter interaction score (EZH2)	3' UTR reporter interaction score (FBXW7)	3' UTR reporter interaction score (HRAS)	3' UTR reporter interaction score (MYB)	3' UTR reporter interaction score (MYCN)	3' UTR reporter interaction score (MYC)	3' UTR reporter interaction score (MYT1L)	3' UTR reporter interaction score (NOTCH1)	3' UTR reporter interaction score (PHF6)	3' UTR reporter interaction score (PHOX2B)	3' UTR reporter interaction score (RB1)	3' UTR reporter interaction score (TP53)	3' UTR reporter interaction score (ZEB2)
GUUUGCACGGGUGGGCCUUGUCU	0.0623	-0.233	-0.619	-1.1	-0.536	1.09	-0.328	2.21	0.297	0.29	0.0301	-0.0813	-0.225	-1.23
UUUUUGCGAUGUGUUCCUAAUA	0.151	1.27	-2.28	0.633	0.165	-0.818	0.66	0.157	0.568	0.21	0.492	-2.29	0.414	-2.41
GAACGCCUGUUCUUGCCAGGUGG	1.57	1.05	-1.79	0.54	0.0781	-0.325	0.431	-0.992	0.125	-1.24	-0.674	0.00732	-0.416	0.419
UUGCAUAUGUAGGAUGUCCCAU	0.216	0.731	1.23	0.995	-1.75	-0.178	0.476	-1.22	0.153	-1.76	-1.16	-0.812	0.961	-4.28
AGGCAGUGUAGUUAGCUGAUUGC	0.647	1.87	-0.242	1.1	-4.27	-5.02	-1.05	0.754	-3.48	-2.27	-1.02	0.138	0.285	-0.539
AAUCCUUUGUCCCUGGGUGAGA	0.853	-0.257	0.455	0.171	-0.9	0.972	0.916	-2.16	1.42	-0.0711	-0.304	0.615	-0.735	0.439
AUCAUAGAGGAAAAUCCACGU	0.121	0.733	0.0331	-1.11	-0.185	0.335	-0.578	0.0345	0.241	0.424	0.628	-0.168	0.405	-0.144
AGCAGCAUUGUACAGGGCUAUCA	1.96	-1	-2.69	0.106	-2.18	0.215	0.869	-2.1	-0.476	1.3	-0.507	1.3	-0.509	1.43
UAGCACCAUUUGAAAUCAGUGUU	0.947	0.729	-3.34	-0.0949	0.253	-3.52	0.295	0.287	0.166	0.425	-1.1	-0.25	-0.394	0.0122
UCGGGGAUCAUCAUGUCACGAG	0.268	-0.077	0.568	-0.912	-0.226	-0.0751	-1.16	-0.88	-0.696	1.52	0.234	1.06	-0.0214	1.06
UUCAACGGGUAUUUAUUGAGCA	0.803	0.563	0.647	1.35	-0.5	0.423	-0.455	-0.699	-0.631	-0.872	0.542	0.475	0.52	-0.63
GUUGUGUCAGUUUAUCAAAC	-0.269	0.353	-0.0228	0.822	0.442	0.0505	0.0323	-0.86	-0.822	-1.91	-0.364	-1.51	0.224	-0.154
UGGAAUGUAAGGAAGUGUGUGG	-0.366	0.341	-0.356	0.0317	-0.696	-2.18	0.26	0.351	-0.967	2.43	0.446	1.33	-1.12	2.54
UGGCAGUGUCUUAGCUGGUUGUU	0.486	0.955	-0.0417	1.33	-2.9	-3.64	-0.668	1.45	-3.59	-0.889	-0.535	-0.641	1.68	0.283
AGAGGUAGUAGGUUGCAUAGU	0.509	-3.25	-0.0422	1	0.728	-3.2	-2.12	-0.701	-0.39	0.956	-0.956	-0.186	0.943	-0.685
UGAUAUGUUUGAUAUAUUAGGU	-2.64	-0.107	0.769	-0.158	-0.701	0.278	0.0447	0.136	0.183	-0.754	0.239	-0.392	0.331	-0.629
